Bridges are numbered along the chain shown (N, C = ends). Where no end group is shown, it is not given here.
How the values were obtained:
mouse red blood cells = assay type: cell-based
Procedure: The hemolytic assay was performed as described previously. Briefly, mouse red blood cells (RBCs, Innovative Research, Novi, MI) were washed three times with phosphate-buffered saline (PBS, pH 7.4), centrifuged at 1000×g for 10 min, and resuspended in PBS to 10% (v/v). The RBCs were treated with CAMPs at various concentrations ranging from 4 to 512 μg/ml (2-fold serial dilutions) at 37 °C for 1 h. PBS and 0.2% Triton X-100 were used as negative and positive controls, respectively. The supernatant was transferred to a 96-well flat-bottomed polystyrene plate (Thermo Fisher Scientific), and the amount of hemoglobin released into the supernatant was determined by measuring the absorbance with a spectrophotometer at 540 nm. Hemolytic activity was expressed as the percentage of hemolysis and calculated using the following equation: hemolysis (%) = (As-A0)/(A100-A0) × 100, where As is the absorbance of the sample, A100 is the absorbance of completely lysed RBCs in 0.2% Triton X-100, and A0 is the absorbance in the complete absence of hemolysis (PBS treatment). The assay was performed in triplicate. The therapeutic index (T.I.) was calculated according to a previously published formula: T.I. = MHC / MICGM [30]. […] The MICGM was the minimum inhibitory concentration of the peptide concentrations against bacterial growth after the geometric mean was calculated. […]

S. aureus (ATCC 29213) = assay type: cell-based, Staphylococcus aureus; settings: ATCC 29213, 24 h
Procedure: (§1) Pseudomonas aeruginosa (P. aeruginosa, ATCC 27853) and Staphylococcus aureus (S. aureus, ATCC 29213) were used to evaluate the novel CAMPs’ antimicrobial activity, salt- and protease-resistance, and membrane permeability. Ten multiple-drug resistant P. aeruginosa and ten methicillin-resistant S. pseudintermedius (MRSP) clinical isolates (Table 2) were used to evaluate the antimicrobial efficacy of CAMPs. The clinical isolates were cultured from diagnostic specimens by the microbiology staff at the University of Missouri Veterinary Medical Diagnostic Laboratory as part of standard service. The isolates were donated to the present project with appropriate permission. All bacterial strains were maintained and grown in Luria-Bertani broth or agar (LB, BD Difco™) at 37 °C as described previously.
(§2) Minimum inhibitory concentrations (MICs) were determined primarily based on the guidelines of the Clinical and Laboratory Standards Institute (CLSI). The Muller Hinton (MH) II broth used in MIC assay contained 20–25 mg/L of calcium and 10–12.5 mg/L of magnesium. The procedures were described in previous studies. In brief, two-fold serially diluted CAMPs (2 to 256 μg/ml) were mixed with appropriate bacterial strains at a final concentration of 5 × 10^5 CFU/ml in a 96-well microtiter plate (Nunc™, Thermo Fisher Scientific). Following incubation at 37 °C for 24 h, MIC was recorded. All assays were conducted in triplicate.

[1] = tested on: Gram-positive bacteria (S. aureus, S. pseudintermedius); experiment: Average MIC for Gram-positive bacteria; assay type: cell-based, Staphylococcus spp.; settings: average over S. aureus ATCC 29213 and 10 MRSP strains (Gram-positive), ± SD
Procedure: as §2
The hemolytic assay was performed as described previously. […] The supernatant was transferred to a 96-well flat-bottomed polystyrene plate (Thermo Fisher Scientific), and the amount of hemoglobin released into the supernatant was determined by measuring the absorbance with a spectrophotometer at 540 nm. Hemolytic activity was expressed as the percentage of hemolysis and calculated using the following equation: hemolysis (%) = (As-A0)/(A100-A0) × 100, where As is the absorbance of the sample, A100 is the absorbance of completely lysed RBCs in 0.2% Triton X-100, and A0 is the absorbance in the complete absence of hemolysis (PBS treatment). […] The therapeutic index (T.I.) was calculated according to a previously published formula: T.I. = MHC / MICGM [30]. […]

P. aeruginosa = assay type: cell-based, Pseudomonas aeruginosa
Procedure: as §1
as §2, with “All assays were conducted in triplicate.” left out

Ac-LRRLKPLIRPWLRPLRRWWW-NH2 [CAMP-A] was tested, and the “concentration exhibiting hemolytic and cytotoxic activities” value (mouse red blood cells) was no less than 128 µg/mL and the MIC (S. aureus (ATCC 29213)) was 32 µg/mL.
Ac-PIHRRIPPRWPRLKRRW-NH2 [CAMP-t2] showed an MIC (S. aureus (ATCC 29213)) of 64 µg/mL.
Substance “Ac-RKFLRRRGEVAHFSQKSLGLYCWWW-NH2 [CAMP-t1]” has an MIC (S. aureus (ATCC 29213)) of 64 µg/mL.
In the case of Ac-RRRWRKRRWWW-NH2 [CAMP-B], the MIC (S. aureus (ATCC 29213)) is reported as 32 µg/mL.
For “SPIHACRYQRGVCIPGPCRWPYYRVGSCGSGLKSCCVRNRWA (disulfide 6-35, 13-28, 18-36 (inferred)) [AvBD-6, reference compound]”, the “MICAverage G+” value [1] was no less than 256 µg/mL, the MIC (P. aeruginosa; 24 h) was greater than 256 µg/mL and the “MICAverage G-” value (P. aeruginosa; average over 11 P. aeruginosa strains (Gram-negative), ± SD) was greater than 256 µg/mL.

— publication PMC5989455, “Beta-defensin derived cationic antimicrobial peptides with potent killing activity against gram negative and gram positive bacteria” (BMC Microbiology, 2018)
